Key:
Test in all cases: WST-1 cell viability assay
Calu-3 = conditions: Calu-3, NRP1-expressing; 0, 1, 2, and 4 μM, 48 hours
H441 = conditions: H441, NRP1-expressing; 0, 1, 2, and 4 μM, 48 hours
H1299 = conditions: H1299, NRP1-expressing; 0, 1, 2, and 4 μM, 48 hours
Calu-1 = conditions: Calu-1, NRP1-expressing; 0, 1, 2, and 4 μM, 48 hours
A549 = conditions: A549, NRP1-expressing; 0, 1, 2, and 4 μM, 48 hours
SK-LU-1 = conditions: SK-LU-1, NRP1-expressing; 0, 1, 2, and 4 μM, 48 hours
HCC44 = conditions: HCC44, NRP1-expressing; 0, 1, 2, and 4 μM, 48 hours
H460 = conditions: H460, expressing no NRP1; 0, 1, 2, and 4 μM, 48 hours

Substance | cell growth inhibitory activity (WST-1) (Calu-3) | cell growth inhibitory activity (WST-1) (H441) | cell growth inhibitory activity (WST-1) (H1299) | cell growth inhibitory activity (WST-1) (Calu-1) | cell growth inhibitory activity (WST-1) (A549) | cell growth inhibitory activity (WST-1) (SK-LU-1) | cell growth inhibitory activity (WST-1) (HCC44) | cell growth inhibitory activity (WST-1) (H460)
Panitumumab [Pnm, reference compound] | showed the same inhibitory activity against cell growth | only Pnm-TPP11 showed cell growth inhibitory activity, unlike Pnm | only Pnm-TPP11 showed cell growth inhibitory activity, unlike Pnm | showed the same inhibitory activity against cell growth | showed the same inhibitory activity against cell growth | only Pnm-TPP11 showed cell growth inhibitory activity, unlike Pnm | showed the same inhibitory activity against cell growth | –
Pnm-TPP11: TPP11 peptide fused to C-terminus of Pnm heavy chain by (G4S)3 linker; heavy chain SEQ ID NO: 10, light chain SEQ ID NO: 14 | showed the same inhibitory activity against cell growth | showed cell growth inhibitory activity | showed cell growth inhibitory activity | showed the same inhibitory activity against cell growth | showed the same inhibitory activity against cell growth | showed cell growth inhibitory activity | showed the same inhibitory activity against cell growth | showed no effect

— patent US11548915B2, “Composition for overcoming resistance to EGFR-targeting agent” (Pinetree Therapeutics, Inc., priority 2016, dated 2023)
